Source: US6410558B1, “Fungicides for the control of take-all disease of plants” (Monsanto Technology LLC, priority 1991, dated 2002)

Experiments:
Ggt = experiment: In vivo Assay: control of Ggt on wheat grown in pots of Ggt-infested soil, root disease rating; design: species or system Gaeumannomyces graminis var. tritici; conditions: 0.5 mg active ingredient per pot, 'Bergen' or 'Anza' wheat in Ggt-infested soil, after four weeks, vs untreated control; for pest or weed control at 0.5 mg/pot: Gaeumannomyces graminis, 672 h, read-out: In vivo, percent disease control
Method: Compounds are tested for control of Ggt on ‘Bergen’ or ‘Anza’ varieties of wheat grown in 3-inch square pots containing soil infested with Ggt. The infestation is accomplished by mixing the soil with an inoculum prepared by growing Ggt on ¼ strength potato dextrose agar (4.875 g potato dextrose agar, 5.0 g Bacto agar, 500 mL distilled, deionized water) in plates and using plugs from the plates to infest sterile oats (400 cc whole oats, 350 mL deionized water, autoclaved). After a one-month incubation period at room temperature, the oats are dried and mixed with the soil at 4% v/v. Four wheat seeds are placed on top of the soil in each pot. The test compounds are prepared as an 1:9 acetone/water v/v solution containing 0.18% Tween® 20 to provide a treatment rate of 0.5 mg active ingredient per pot, treated with 3 mL test solution per pot. Five pots are used for each treatment level and the controls, which are untreated, inoculated and non-inoculated pots. After one hour drying time, the seeds are covered with more of the appropriate soil and a layer of vermiculite. The pots are placed in a growth chamber and watered each day. After four weeks, each pot is evaluated for evidence of disease by examination of the seminal roots of each plant under a dissecting microscope. A 0 to 5 rating scale having the following meanings is used:
0=no runner hyphae or lesions present
1=runner hyphae and a few small lesions present on <10% of root system
2=runner hyphae and small lesions present on 10-25% of root system
3=runner hyphae and lesions present on 25-50% of root system
4=runner hyphae and many, large, coalescing lesions on >50% of root system
5=root system and culm completely inundated with lesions and runner hyphae
From each set of five replicates a high and low score is eliminated and a replicate mean is calculated by the average of the remaining three scores. This mean score is then compared to the untreated control score and a percent disease control is calculated.

[1] = system: Gaeumannomyces graminis var. tritici (Ggt); experiment: In vitro Assay: mycelial growth of Ggt on minimal media agar plates containing test compound; format: cell-based; conditions: dark, 19-20° C., 4 to 5 days, diameter of mycelial growth; for inhibition at 0.1 ppm / inhibition at 1 ppm / inhibition at 10 ppm: Gaeumannomyces graminis; for inhibition at 0.1 ppm / In vitro (ppm) 0.1, Percent Inhibition: 0.1 ppm in minimal media agar; for inhibition at 0.1 ppm: read-out: In vitro (ppm) 0.1, Percent Inhibition; for inhibition at 1 ppm / In vitro (ppm) 1, Percent Inhibition: 1 ppm in minimal media agar; for inhibition at 1 ppm: read-out: In vitro (ppm) 1, Percent Inhibition; for inhibition at 10 ppm / In vitro (ppm) 10, Percent Inhibition: 10 ppm in minimal media agar; for inhibition at 10 ppm: read-out: In vitro (ppm) 10, Percent Inhibition
Method in brief: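 Compounds added from acetone stock into minimal (Czapek Dox) agar; plates inoculated with three 4-mm Ggt plugs, incubated in dark at 19-20° C for 4 to 5 days. Colony diameter measured; Percent Inhibition = [1-((treated mm −4)/(control mm −4))]×100.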

CCN(CC)C(=O)c1cccc(F)c1[Si](C)(C)C [Example 4, N,N-Diethyl-3-fluoro-2-(trimethylsilyl)benzamide] showed a pest or weed control at 0.5 mg/pot (Ggt) of 54%, an inhibition at 0.1 ppm [1] of under 0% and an inhibition at 1 ppm [1] of under 0%. It also gave an inhibition at 10 ppm [1] of 57%.

CN(Cc1ccc(C(F)(F)F)cc1)C(=O)c1c(Cl)cccc1[Si](C)(C)C [Example 103, 2-Chloro-N-methyl-N-[[4-(trifluoromethyl)phenyl]-methyl]-6-(trimethylsilyl)-benzamide] showed a pest or weed control at 0.5 mg/pot (Ggt) of 26%, an inhibition at 0.1 ppm [1] of under 0% and an inhibition at 1 ppm [1] of 55%. It also gave an inhibition at 10 ppm [1] of 92%.

Compound CCN(C(=O)c1c(Cl)cccc1[Si](C)(C)C)C(C)C [Example 18, 2-Chloro-N-ethyl-N-(1-methylethyl)-6-(trimethylsilyl)benzamide] has a pest or weed control at 0.5 mg/pot (Ggt) of 97%, an inhibition at 0.1 ppm [1] of under 0% and an inhibition at 1 ppm [1] of under 0%. For the same compound, the inhibition at 10 ppm [1] was 100%.

CCN(Cc1ccccc1)C(=O)c1c(Cl)cccc1[Si](C)(C)C [Example 35, 2-Chloro-N-ethyl-N-(phenylmethyl)-6-(trimethylsilyl)benzamide] was tested, and the pest or weed control at 0.5 mg/pot (Ggt) was 46%, the inhibition at 0.1 ppm [1] was 3% and the inhibition at 1 ppm [1] was 7%. It also gave an inhibition at 10 ppm [1] of 93%.

With “2-N,N-dipropyl-6-(trimethylsilyl)benzamide [Example 14]” the “In vivo, percent disease control” value (Ggt) was 92%, the “In vitro (ppm) 0.1, Percent Inhibition” value [1] was 7% and the “In vitro (ppm) 1, Percent Inhibition” value [1] was 40%. The “In vitro (ppm) 10, Percent Inhibition” value [1] was 79%.

With CC1CN(C(=O)c2c(Cl)cccc2[Si](C)(C)C)CC(C)O1 (stereo not drawn) [Example 130, N-[2-Chloro-6-(trimethylsilyl)benzoyl]-2,6-dimethylmorpholine] the pest or weed control at 0.5 mg/pot (Ggt) was 1%, the inhibition at 0.1 ppm [1] was 16% and the inhibition at 1 ppm [1] was 13%. The inhibition at 10 ppm [1] was 39%.

In the case of C[Si](C)(C)c1cccc(Cl)c1C(=O)NCC(F)(F)F [Example 25, 2-Chloro-N-(2,2,2-trifluoro-ethyl)-6-(trimethylsilyl)-benzamide], the pest or weed control at 0.5 mg/pot (Ggt) is reported as 56%, the inhibition at 0.1 ppm [1] is reported as 19% and the inhibition at 1 ppm [1] is reported as 15%. For the same compound, the inhibition at 10 ppm [1] was 89%.

In the case of CN(C)NC(=O)c1c(Cl)cccc1[Si](C)(C)C [Example 99, 2-Chloro-6-(trimethylsilyl)-2,2-dimethylhydrazide-benzoic acid], the “In vivo, percent disease control” value (Ggt) is reported as 59%, the “In vitro (ppm) 0.1, Percent Inhibition” value [1] is reported as 5% and the “In vitro (ppm) 1, Percent Inhibition” value [1] is reported as 72%. For the same compound, the “In vitro (ppm) 10, Percent Inhibition” value [1] was 95%.

Compound CCN(SC)C(=O)c1sccc1[Si](C)(C)C [Example 272, N-Ethyl-N-(methylthio)-3-(trimethylsilyl)-2-thiophenecarboxamide] has a pest or weed control at 0.5 mg/pot (Ggt) of 0%, an inhibition at 0.1 ppm [1] of 14% and an inhibition at 1 ppm [1] of 23%. For the same compound, the inhibition at 10 ppm [1] was 100%.

CCNC(=O)c1ccccc1N(C)C(C)(C)C [Example 188, 2-[(1,1-Dimethylethyl)methylamino]-N-ethylbenzamide] gave a pest or weed control at 0.5 mg/pot (Ggt) of 15%, an inhibition at 0.1 ppm [1] of 29% and an inhibition at 1 ppm [1] of 71%. For the same compound, the inhibition at 10 ppm [1] was 100%.

In the case of CCNC(=O)c1c(Cl)ccc(Cl)c1[Si](C)(C)C [Example 200, 3,6-Dichloro-N-ethyl-2-(trimethylsilyl)benzamide], the pest or weed control at 0.5 mg/pot (Ggt) is reported as 65%, the inhibition at 0.1 ppm [1] is reported as 92% and the inhibition at 1 ppm [1] is reported as 100%. For the same compound, the inhibition at 10 ppm [1] was 100%.

In the case of C[Si](C)(C)c1cccc(Cl)c1C(=O)Nc1ccccc1 [Example 16, 2-Chloro-N-phenyl-6-(trimethylsilyl)-benzamide], the pest or weed control at 0.5 mg/pot (Ggt) is reported as 3%, the inhibition at 0.1 ppm [1] is reported as 11% and the inhibition at 1 ppm [1] is reported as 27%. It also gave an inhibition at 10 ppm [1] of 76%.

With CCN(C(=O)OC(C)(C)C)C(=O)c1c(Cl)cccc1[Si](C)(C)C [Example 211, [2-Chloro-6-(trimethylsilyl)benzoyl]ethylcarbamic acid, 1,1-dimethylethyl ester] the pest or weed control at 0.5 mg/pot (Ggt) was 96%, the inhibition at 0.1 ppm [1] was under 0% and the inhibition at 1 ppm [1] was 82%. It also gave an inhibition at 10 ppm [1] of 90%.

Compound CCNC(=O)c1c(Cl)cccc1NC(C)(C)C [Example 192, 2-Chloro-6-[(1,1-dimethylethyl)amino]-N-ethylbenzamide] has a pest or weed control at 0.5 mg/pot (Ggt) of 99%, an inhibition at 0.1 ppm [1] of 86% and an inhibition at 1 ppm [1] of 95%. The inhibition at 10 ppm [1] was 95%.

CCCN(C(=O)c1c(Cl)cccc1[Si](C)(C)C)C(C)C [Example 95, 2-Chloro-N-(1-methylethyl)-N-propyl-6-(trimethylsilyl)benzamide] was tested, and the pest or weed control at 0.5 mg/pot (Ggt) was 63%, the inhibition at 0.1 ppm [1] was under 0% and the inhibition at 1 ppm [1] was 62%. For the same compound, the inhibition at 10 ppm [1] was 100%.

CCNC(=O)c1c([Si](C)(C)C)ccc(CF)c1Cl [Example 228, 2-Chloro-N-ethyl-3-(fluoromethyl)-6-(trimethylsilyl)benzamide] gave a pest or weed control at 0.5 mg/pot (Ggt) of 84%, an inhibition at 0.1 ppm [1] of under 0% and an inhibition at 1 ppm [1] of 87%. The inhibition at 10 ppm [1] was 96%.

C[Si](C)(C)c1cccc(Cl)c1C(=O)NCCO [Example 27, 2-Chloro-N-(2-hydroxyethyl)-6-(trimethylsilyl)benzamide] gave a pest or weed control at 0.5 mg/pot (Ggt) of 33%, an inhibition at 0.1 ppm [1] of 15% and an inhibition at 1 ppm [1] of 13%. It also gave an inhibition at 10 ppm [1] of 64%.

For C=C[Si](C)(C)c1cccc(Cl)c1C(=O)NCC [Example 87, N-Ethyl-2-chloro-6-(ethenyldimethylsilyl)benzamide], the pest or weed control at 0.5 mg/pot (Ggt) was 96%, the inhibition at 0.1 ppm [1] was 93% and the inhibition at 1 ppm [1] was 100%. For the same compound, the inhibition at 10 ppm [1] was 100%.

Work on CCNC(=O)c1c([Si](C)(C)C)ccc([N+](=O)[O-])c1Cl [Example 216, 2-Chloro-N-ethyl-3-nitro-6-(trimethylsilyl)benzamide] yielded a pest or weed control at 0.5 mg/pot (Ggt) of 68%, an inhibition at 0.1 ppm [1] of 25% and an inhibition at 1 ppm [1] of 54%. It also gave an inhibition at 10 ppm [1] of 92%.

CCN(CC)C(=O)c1c(Cl)cccc1[Si](C)(C)CCl [Example 69, N,N-Diethyl-2-chloro-6-[(chloromethyl)dimethylsilyl]benzamide] was tested, and the pest or weed control at 0.5 mg/pot (Ggt) was 67%, the inhibition at 0.1 ppm [1] was 51% and the inhibition at 1 ppm [1] was 81%. For the same compound, the inhibition at 10 ppm [1] was 100%.

CCN(CC)C(=O)c1c(CF)ccc(F)c1[Si](C)(C)C [Example 55, N,N-Diethyl-3-fluoro-6-(fluoromethyl)-2-(trimethylsilyl)benzamide] gave a pest or weed control at 0.5 mg/pot (Ggt) of 100%, an inhibition at 0.1 ppm [1] of 49% and an inhibition at 1 ppm [1] of 81%. The inhibition at 10 ppm [1] was 100%.

With CCN(CC)C(=O)c1c(Cl)cccc1[Si](CC)(CC)CC [Example 66, N,N-Diethyl-2-chloro-6-(triethylsilyl)benzamide] the pest or weed control at 0.5 mg/pot (Ggt) was 3%, the inhibition at 0.1 ppm [1] was under 0% and the inhibition at 1 ppm [1] was under 0%. The inhibition at 10 ppm [1] was 58%.

Compound C=CCNC(=O)NC(=O)c1c(Cl)cccc1[Si](C)(C)C [Example 165, 2-Chloro-N-[(2-propenylamino)carbonyl]-6-(trimethylsilyl)benzamide] has a pest or weed control at 0.5 mg/pot (Ggt) of 63%, an inhibition at 0.1 ppm [1] of under 0% and an inhibition at 1 ppm [1] of 76%. For the same compound, the inhibition at 10 ppm [1] was 100%.

With CCNC(=O)c1c(Cl)cccc1[Si](C)(C)C(C)C [Example 180, 2-Chloro-6-[dimethyl(1-methylethyl)silyl]-N-ethylbenzamide] the pest or weed control at 0.5 mg/pot (Ggt) was 96%, the inhibition at 0.1 ppm [1] was 85% and the inhibition at 1 ppm [1] was 82%. It also gave an inhibition at 10 ppm [1] of 90%.

For CCNC(=O)c1ccccc1[Si](C)(C)C [Example 49, N-Ethyl-2-(trimethylsilyl)benzamide], the pest or weed control at 0.5 mg/pot (Ggt) was 97%, the inhibition at 0.1 ppm [1] was 100% and the inhibition at 1 ppm [1] was 100%. For the same compound, the inhibition at 10 ppm [1] was 100%.

Compound C[Si](C)(C)c1cccc(Cl)c1C(=O)N1CCOCC1 [Example 132, N-[2-Chloro-6-(trimethylsilyl)benzoyl]-morpholine] has a pest or weed control at 0.5 mg/pot (Ggt) of under 0%, an inhibition at 0.1 ppm [1] of 54% and an inhibition at 1 ppm [1] of 15%. It also gave an inhibition at 10 ppm [1] of 46%.

CN1CCN(C(=O)c2c(Cl)cccc2[Si](C)(C)C)CC1 [Example 133, N-[2-Chloro-6-(trimethylsilyl)benzoyl]-4-methylpiperazine] gave a pest or weed control at 0.5 mg/pot (Ggt) of under 0%, an inhibition at 0.1 ppm [1] of 13% and an inhibition at 1 ppm [1] of 3%. The inhibition at 10 ppm [1] was 18%.
